Where two headings read alike, the source gives them in different places.
Tested on: hVISA NRS2
Test: Disk diffusion assay (zone of inhibition)
Type: cell-based, Staphylococcus aureus
Conditions: Staphylococcus aureus; for zone of inhibition at 90 µg/disc: 90 μg oritavancin; for zone of inhibition at 180 µg/disc: 180 μg oritavancin; for zone of inhibition at 12.5 µg/disc: 12.5 μg in 4% P80/Span 80 (1:1); for zone of inhibition at 200 µg/disc: 200 μg in 4% P80/Span 80 (1:1)
Description: The study was designed to identify conditions that improve oritavancin diffusion in agar and consequently yield a zone diameter ≧15 mm for the CLSI quality control strain MSSA ATCC 25923. Excipients that increased the disk diffusion of oritavancin in agar relative to disks containing only oritavancin were identified and selected for further study. […] A prediffusion step at room temperature was introduced to maximize oritavancin diffusion prior to initiation of bacterial growth. In this step, the antimicrobial disks were placed on agar plates seeded with a bacterial isolate and incubated at room temperature for 3 hours. Plates were then incubated overnight at 37° C. Zone diameters around the disks in which bacterial growth was inhibited were measured with a ruler and reported in millimeters.
Ethanol-sterilized Whatman paper disks (6 mm diameter) were allowed to dry then impregnated with 20 microliters of oritavancin solution containing total amounts ranging from 90 to 360 micrograms. Disks were allowed to dry at room temperature for various times prior to use.
Bacterial suspensions were prepared and adjusted to an optical density of 0.1 at 600 nm. Standard cation-adjusted Mueller Hinton agar plates (90 mm diameter) were seeded with bacterial suspensions by initially swabbing the center of plate then moving outward towards the edge. The plate was swabbed a second time, perpendicular to the orientation of the first swab. To assess the impact of prediffusion on diameter of inhibition zones, two disks were immediately placed on one half of the plate and the plate was incubated for 3 hours at room temperature. After 3 hours, two additional disks were placed on the other half of the plate then the plate was incubated overnight at 37° C. Zone diameters were measured with a ruler and reported in millimeters.
Oritavancin powder was dissolved in freshly-prepared solutions of the indicated excipients at concentrations of 0.625, 1.25, 2.5, 5, and 10 mg/ml (adjusted for potency based on lot 875561L00 purity of 83.1%) by vortexing for a minimum of 5 minutes. Oritavancin solutions in the various excipients, while not visually clear, were free from any apparent particulates as assessed visually. Sterile Oxoid blank disks were impregnated with 20 μl of these oritavancin solutions, resulting in oritavancin disk loads ranging from 12.5 to 200 μg. Unless indicated otherwise, disks were allowed to dry overnight at room temperature prior to use.
Bacterial suspensions from isolated colonies on overnight cation-adjusted Mueller Hinton agar plates were prepared in sterile saline and adjusted to an optical density of 0.1 at 600 nm Standard cation-adjusted Mueller Hinton agar plates (90 mm diameter) were seeded with bacterial suspensions by initially swabbing the center of plate then moving outward. Swabbing was continued at a right angle and then at an oblique angle to the first and second swabs. Disks were placed upon the seeded plates with sterile forceps. Plates were then incubated overnight at 37° C. and inhibition zone diameters were measured with a ruler and reported in millimeters.

[1] = NRS2, 336 h, NRS2, 5% P80, disks stored 14 days, prediffusion, read-out: Average zone diameter
[2] = NRS2, 336 h, NRS2, 10% P80, disks stored 14 days, prediffusion, read-out: Average zone diameter
[3] = NRS2, NRS2, calcium alginate swab, dried overnight, read-out: Inhibition zone diameter
[4] = NRS2, NRS2, cotton swab, dried overnight, estimate of diameter

Molecule `CN[C@H](CC(C)C)C(=O)N[C@H]1C(=O)N[C@@H](CC(N)=O)C(=O)N[C@H]2C(=O)N[C@H]3C(=O)N[C@H](C(=O)N[C@H](C(=O)O)c4cc(O)cc(O)c4-c4cc3ccc4O)[C@H](O[C@H]3C[C@](C)(N)[C@@H](O)[C@H](C)O3)c3ccc(c(Cl)c3)Oc3cc2cc(c3O[C@@H]2O[C@H](CO)[C@@H](O)[C@H](O)[C@H]2O[C@H]2C[C@](C)(NCc3ccc(-c4ccc(Cl)cc4)cc3)[C@@H](O)[C@H](C)O2)Oc2ccc(cc2Cl)[C@H]1O` [oritavancin, N-(4-(4-chlorophenyl)benzyl)A82846B] has a zone of inhibition at 360 µg/disc (NRS2, 192 h, NRS2, 360 μg in 5% P80, Experiment 2, disks stored 8 days, no prediffusion, read-out: Zone diameter (mm ± SD)) of 14.3 ± 0.4 mm, a zone of inhibition at 360 µg/disc (NRS2, 192 h, NRS2, 360 μg oritavancin, 2.5% P80, disks stored 8 days, prediffusion, read-out: Average zone diameter) of 15 mm and a zone of inhibition at 90 µg/disc [1] of 15 mm. It also gave a zone of inhibition at 90 µg/disc [2] of 15.8 mm, a zone of inhibition at 180 µg/disc [1] of 16 mm and a zone of inhibition at 180 µg/disc [2] of 16 mm. The zone of inhibition at 360 µg/disc (NRS2, 336 h, NRS2, 360 μg in 5% P80, Experiment 1, disks stored 14 days, no prediffusion, read-out: Zone diameter (mm ± SD)) was 15.5 mm, the zone of inhibition at 360 µg/disc (NRS2, 336 h, NRS2, 360 μg oritavancin, 5% P80, disks stored 14 days, prediffusion, read-out: Average zone diameter) was 18 mm and the zone of inhibition at 360 µg/disc (NRS2, 336 h, NRS2, 360 μg oritavancin, 10% P80, disks stored 14 days, prediffusion, read-out: Average zone diameter) was 16.5 mm. The zone of inhibition at 12.5 µg/disc [3] was 12.5 mm, the zone of inhibition at 12.5 µg/disc [4] was 13 mm and the zone of inhibition at 1250 µg/mL (NRS2, NRS2, 25 μg (20 μl of 1.25 mg/ml) in 4% P80/Span 80 (1:1), calcium alginate swab, dried overnight, read-out: Inhibition zone diameter) was 16 mm. It also gave a zone of inhibition at 25 µg/disc (NRS2, NRS2, 25 μg in 4% P80/Span 80 (1:1), cotton swab, dried overnight, estimate of diameter) of 17 mm, a zone of inhibition at 50 µg/disc (NRS2, NRS2, 50 μg in 4% P80/Span 80 (1:1), calcium alginate swab, dried overnight, read-out: Inhibition zone diameter) of 15 mm and a zone of inhibition at 50 µg/disc (NRS2, NRS2, 50 μg in 4% P80/Span 80 (1:1), cotton swab, dried overnight, estimate of diameter) of 17 mm. It also gave a zone of inhibition at 50 µg/disc (NRS2, NRS2, 50 μg, 4% P80/Span 80 ratio 50:50, dried overnight, estimate of diameter) of 16 mm, a zone of inhibition at 50 µg/disc (NRS2, NRS2, 50 μg, 4% P80/Span 80 ratio 60:40, dried overnight, estimate of diameter) of 15 mm and a zone of inhibition at 50 µg/disc (NRS2, NRS2, 50 μg, 4% P80/Span 80 ratio 70:30, dried overnight, estimate of diameter) of 14 mm. It also gave a zone of inhibition at 50 µg/disc (NRS2, NRS2, 50 μg, 4% P80/Span 80 ratio 80:20, dried overnight, estimate of diameter) of 14 mm, a zone of inhibition at 50 µg/disc (NRS2, NRS2, 50 μg, 4% P80/Span 80 ratio 90:10, dried overnight, estimate of diameter) of 12 mm and a zone of inhibition at 100 µg/disc (NRS2, NRS2, 100 μg in 4% P80/Span 80 (1:1), calcium alginate swab, dried overnight, read-out: Inhibition zone diameter) of 11 mm. It also gave a zone of inhibition at 200 µg/disc [3] of 10 mm, a zone of inhibition at 200 µg/disc [4] of 13 mm and a zone of inhibition at 360 µg/disc (NRS2, NRS2, 360 μg in 5% P80, Average of experiments, no prediffusion, read-out: Zone diameter (mm ± SD)) of 14.9 ± 0.8 mm. For the same molecule, the zone of inhibition at 360 µg/disc (NRS2, NRS2, 360 μg in 5% P80, Average of experiments, prediffusion, read-out: Zone diameter (mm ± SD)) was 17.3 ± 0.3 mm, the zone of inhibition at 360 µg/disc (NRS2, NRS2, 360 μg in 5% P80, Experiment 1, disks stored 14 days, 3 h prediffusion at room temperature, read-out: Zone diameter (mm ± SD)) was 17.5 mm and the zone of inhibition at 360 µg/disc (NRS2, NRS2, 360 μg in 5% P80, Experiment 2, disks stored 8 days, 3 h prediffusion at room temperature, read-out: Zone diameter (mm ± SD)) was 17 mm. It also gave a zone of inhibition at 360 µg/disc (NRS2, NRS2, 360 μg oritavancin, excipient 5% P80, disks stored 5 days at room temperature, 3 h prediffusion, average of 2 disks, read-out: Average zone diameter) of 17.8 mm, a zone of inhibition at 1250 µg/mL (NRS2, NRS2, 20 μl of 1.25 mg/ml oritavancin in 1% poly(ethylene glycol) sorbitol hexaoleate, read-out: Inhibition zone diameter) of 9 mm and a zone of inhibition at 1250 µg/mL (NRS2, NRS2, 20 μl of 1.25 mg/ml oritavancin in 5% Brij 30, read-out: Inhibition zone diameter) of 8 mm. For the same molecule, the zone of inhibition at 1250 µg/mL (NRS2, NRS2, 20 μl of 1.25 mg/ml oritavancin in 5% Merpol SE, read-out: Inhibition zone diameter) was 11 mm.

Reference: patent US8815535B2, “Disk diffusion assay for oritavancin” (The Medicines Company, priority 2011, dated 2014)
